Assay results: US20070049564A1 (Wyeth, priority 2005, published 2007)
Read-outs that look alike come from different tables or passages of the source.

Experiments:
[1] = system: Staph. aureus Smith; assay: In vivo activity (oral, iv; ED50) against Staph. aureus Smith in mice
Protocol: Representative examples of compounds of Formula I were tested for the oral efficacy using S. aureus Smith in mice.

[2] = system: E. faecalis GC 2267; assay: MIC, broth microdilution; details: Enterococcus faecalis, GC2267, E. faecalis GC 2267
[3] = system: E. coli GC 2235; assay: MIC, broth microdilution; details: Escherichia coli, GC2235, E. coli GC 2235
[4] = system: S. aureus GC 4536; assay: MIC, broth microdilution; details: Staphylococcus aureus, GC4536, S. aureus GC 4536
[5] = system: E. coli GC 6465; assay: MIC, broth microdilution; details: Escherichia coli, GC6465, E. coli GC 6465
[6] = system: E. faecalis GC 4555; assay: MIC, broth microdilution; details: Enterococcus faecalis, GC4555, E. faecalis GC 4555
[7] = system: S. pneumoniae+ GC 4465; assay: MIC, broth microdilution; details: Streptococcus pneumoniae, S. pneumoniae+ GC 4465
[8] = system: E. coli GC 1073; assay: MIC, broth microdilution; details: Escherichia coli, GC1073, E. coli GC 1073
[9] = system: E. coli GC 4559; assay: MIC, broth microdilution; details: Escherichia coli, GC4559, E. coli GC 4559
[10] = system: S. pneumoniae* GC 4465; assay: MIC, broth microdilution; details: Streptococcus pneumoniae, S. pneumoniae* GC 4465
[11] = system: S. aureus GC 1131; assay: MIC, broth microdilution; details: Staphylococcus aureus, GC1131, S. aureus GC 1131
[12] = system: S. aureus GC 6467; assay: MIC, broth microdilution; details: Staphylococcus aureus, GC6467, S. aureus GC 6467
[13] = system: S. typhimurium GC 2172; assay: MIC, broth microdilution; details: Salmonella enterica, TYPHIMURIUM, S. typhimurium GC 2172
[14] = system: E. faecalis GC 2242; assay: MIC, broth microdilution; details: Enterococcus faecalis, GC2242, E. faecalis GC 2242
[15] = system: S. epidermidis GC 4935; assay: MIC, broth microdilution; details: Staphylococcus epidermidis, GC4935, S. epidermidis GC 4935
[16] = system: S. aureus GC 1079; assay: MIC, broth microdilution; details: Staphylococcus aureus, GC1079, S. aureus GC 1079
[17] = system: E. coli GC 4560; assay: MIC, broth microdilution; details: Escherichia coli, GC4560, E. coli GC 4560
[18] = system: S. agalactiae GC 4564; assay: MIC, broth microdilution; details: Streptococcus agalactiae, GC4564, S. agalactiae GC 4564
[19] = system: c. albicans GC 3066; assay: MIC, broth microdilution
[20] = system: E. coli GC 2272; assay: MIC, broth microdilution; details: Escherichia coli, GC2272, E. coli GC 2272

CCCN(CC(=O)Nc1cc(N(C)C)c2c(c1O)C(=O)C1=C(O)[C@]3(O)C(=O)C(C(N)=O)=C(O)[C@@H](N(C)C)[C@@H]3C[C@@H]1C2)C(=O)OCC(C)C [Example 16, isobutyl 2-{[(5aR,6aS,7S,10aS)-9-(aminocarbonyl)-4,7-bis(dimethylamino)-1,8,10a,11-tetrahydroxy-10,12-dioxo-5,5a,6,6a,7,10,10a,12-octahydrotetracen-2-yl]amino}-2-oxoethyl(propyl)carbamate]
> 2 mg/kg: ED50 ([1]; iv, read-out: ED50 Staph Smith SIV)
4 µg/mL: MIC ([2]; Mouse Serum pre-incubation) | MIC ([4]; Water pre-incubation) | MIC ([6]; Mouse Serum pre-incubation) | MIC ([10]; Mouse Serum pre-incubation) | MIC ([10]; Water pre-incubation) | MIC ([11]; Water pre-incubation) | MIC ([16]; Water pre-incubation) | MIC ([17]; Water pre-incubation)
> 64 µg/mL: MIC ([5]; Mouse Serum pre-incubation) | MIC ([5]; Water pre-incubation) | MIC ([8]; Mouse Serum pre-incubation) | MIC ([8]; Water pre-incubation) | MIC ([9]; Mouse Serum pre-incubation) | MIC ([9]; Water pre-incubation) | MIC ([13]; Mouse Serum pre-incubation) | MIC ([13]; Water pre-incubation) | MIC ([19]; Candida albicans, GC3066) | MIC ([20]; Mouse Serum pre-incubation) | MIC ([20]; Water pre-incubation)
8 µg/mL: MIC ([2]; Water pre-incubation) | MIC ([6]; Water pre-incubation) | MIC ([7]; Mouse Serum pre-incubation) | MIC ([7]; Water pre-incubation) | MIC ([12]; Mouse Serum pre-incubation) | MIC ([12]; Water pre-incubation) | MIC ([14]; Mouse Serum pre-incubation) | MIC ([14]; Water pre-incubation) | MIC ([15]; Mouse Serum pre-incubation) | MIC ([15]; Water pre-incubation)
2 µg/mL: MIC ([4]; Mouse Serum pre-incubation) | MIC ([11]; Mouse Serum pre-incubation) | MIC ([16]; Mouse Serum pre-incubation) | MIC ([17]; Mouse Serum pre-incubation)
16 µg/mL: MIC ([3]; Mouse Serum pre-incubation) | MIC ([18]; Mouse Serum pre-incubation) | MIC ([18]; Water pre-incubation)
>64 UG/ML: MIC ([19]; c. albicans GC 3066, Water pre-incubation)
64 µg/mL: MIC ([3]; Water pre-incubation)
> 32 mg/kg: ED50 ([1]; Staphylococcus aureus, in Mus musculus, po, read-out: ED50 Staph Smith SOD)
